In patent publication US9006250B2, “4-amino-6-(heterocyclic)picolinates and 6-amino-2-(heterocyclic)pyrimidine-4-carboxylates and their use as herbicides” (Dow AgroSciences, LLC, priority 2013, dated 2015):

Key:
[1] = system: CHEAL: lambsquarters (Chenopodium album); test: Post-Emergent Test II herbicidal activity; format: in vivo; conditions: post-emergence, 336 h, 14 days, read-out: Visual Growth Reduction (%) 14 Days After Application CHEAL; for pest or weed control at 35 g/ha: 35 g ai/ha; for pest or weed control at 70 g/ha: 70 g ai/ha; for pest or weed control at 140 g/ha: 140 g ai/ha
Summary of the method: (§1)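 Test plants grown in greenhouse to first or second true leaf stage (7-21 d, ~23-29° C day), then sprayed overhead at 187 L/ha with compound in acetone/DMSO-based aqueous spray containing crop oil concentrate and surfactant, at highest rate plus ½× to 1/16× serial dilutions. Injury scored visually after 14 d versus untreated plants (0 = none, 100 = complete kill).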

[2] = system: AMARE: redroot pigweed (Amaranthus retroflexus); test: Post-Emergent Test II herbicidal activity; format: in vivo; conditions: post-emergence, 336 h, 14 days, read-out: Visual Growth Reduction (%) 14 Days After Application AMARE; for pest or weed control at 35 g/ha: 35 g ai/ha; for pest or weed control at 70 g/ha: 70 g ai/ha; for pest or weed control at 140 g/ha: 140 g ai/ha
Summary of the method: as §1

[3] = system: HELAN: sunflower (Helianthus annuus); test: Post-Emergent Test II herbicidal activity; format: in vivo; conditions: post-emergence, 336 h, 14 days, read-out: Visual Growth Reduction (%) 14 Days After Application HELAN; for pest or weed control at 35 g/ha: 35 g ai/ha; for pest or weed control at 70 g/ha: 70 g ai/ha; for pest or weed control at 140 g/ha: 140 g ai/ha
Summary of the method: as §1

[4] = system: ZEAMX: maize, corn (Zea mays); test: Post-Emergent Test II herbicidal activity; format: in vivo; conditions: post-emergence, 336 h, 14 days, read-out: Visual Growth Reduction (%) 14 Days After Application ZEAMX; for pest or weed control at 35 g/ha: 35 g ai/ha; for pest or weed control at 70 g/ha: 70 g ai/ha; for pest or weed control at 140 g/ha: 140 g ai/ha
Summary of the method: as §1

[5] = system: ORYSA: rice (Oryza sativa); test: Post-Emergent Test II herbicidal activity; format: in vivo; conditions: post-emergence, 336 h, 14 days, read-out: Visual Growth Reduction (%) 14 Days After Application ORYSA; for pest or weed control at 35 g/ha: 35 g ai/ha; for pest or weed control at 70 g/ha: 70 g ai/ha; for pest or weed control at 140 g/ha: 140 g ai/ha
Summary of the method: as §1

[6] = system: ABUTH: velvetleaf (Abutilon theophrasti); test: Post-Emergent Test II herbicidal activity; format: in vivo; conditions: post-emergence, 336 h, 14 days, read-out: Visual Growth Reduction (%) 14 Days After Application ABUTH; for pest or weed control at 35 g/ha: 35 g ai/ha; for pest or weed control at 70 g/ha: 70 g ai/ha; for pest or weed control at 140 g/ha: 140 g ai/ha
Summary of the method: as §1

[7] = system: ECHCG: barnyardgrass (Echinochloa crus-galli); test: Post-Emergent Test II herbicidal activity; format: in vivo; conditions: post-emergence, 336 h, 14 days, read-out: Visual Growth Reduction (%) 14 Days After Application ECHCG; for pest or weed control at 35 g/ha: 35 g ai/ha; for pest or weed control at 70 g/ha: 70 g ai/ha; for pest or weed control at 140 g/ha: 140 g ai/ha
Summary of the method: as §1

[8] = system: BRSNN: oilseed rape, canola (Brassica napus); test: Post-Emergent Test II herbicidal activity; format: in vivo; conditions: post-emergence, 336 h, 14 days, read-out: Visual Growth Reduction (%) 14 Days After Application BRSNN; for pest or weed control at 35 g/ha: 35 g ai/ha; for pest or weed control at 70 g/ha: 70 g ai/ha; for pest or weed control at 140 g/ha: 140 g ai/ha
Summary of the method: as §1

[9] = system: SETFA: giant foxtail (Setaria faberi); test: Post-Emergent Test II herbicidal activity; format: in vivo; conditions: post-emergence, 336 h, 14 days, read-out: Visual Growth Reduction (%) 14 Days After Application SETFA; for pest or weed control at 35 g/ha: 35 g ai/ha; for pest or weed control at 70 g/ha: 70 g ai/ha; for pest or weed control at 140 g/ha: 140 g ai/ha
Summary of the method: as §1

[10] = system: EPHHL: wild poinsettia (Euphorbia heterophylla); test: Post-Emergent Test II herbicidal activity; format: in vivo; conditions: post-emergence, 336 h, 14 days, read-out: Visual Growth Reduction (%) 14 Days After Application EPHHL; for pest or weed control at 35 g/ha: 35 g ai/ha; for pest or weed control at 70 g/ha: 70 g ai/ha; for pest or weed control at 140 g/ha: 140 g ai/ha
Summary of the method: as §1

[11] = system: CYPES: yellow nutsedge (Cyperus esculentus); test: Post-Emergent Test II herbicidal activity; format: in vivo; conditions: post-emergence, 336 h, 14 days, read-out: Visual Growth Reduction (%) 14 Days After Application CYPES; for pest or weed control at 35 g/ha: 35 g ai/ha; for pest or weed control at 70 g/ha: 70 g ai/ha; for pest or weed control at 140 g/ha: 140 g ai/ha
Summary of the method: as §1

[12] = system: TRZAS: wheat, spring (Triticum aestivum); test: Post-Emergent Test II herbicidal activity; format: in vivo; conditions: post-emergence, 336 h, 14 days, read-out: Visual Growth Reduction (%) 14 Days After Application TRZAS; for pest or weed control at 35 g/ha: 35 g ai/ha; for pest or weed control at 70 g/ha: 70 g ai/ha; for pest or weed control at 140 g/ha: 140 g ai/ha
Summary of the method: as §1

SMILES	melting point [°C]	pest or weed control at 35 g/ha [1] [%]	pest or weed control at 70 g/ha [1] [%]	pest or weed control at 140 g/ha [1] [%]	pest or weed control at 35 g/ha [2] [%]	pest or weed control at 70 g/ha [2] [%]	pest or weed control at 140 g/ha [2] [%]	pest or weed control at 35 g/ha [3] [%]	pest or weed control at 70 g/ha [3] [%]	pest or weed control at 140 g/ha [3] [%]	pest or weed control at 35 g/ha [4] [%]	pest or weed control at 70 g/ha [4] [%]	pest or weed control at 140 g/ha [4] [%]	pest or weed control at 35 g/ha [5] [%]	pest or weed control at 70 g/ha [5] [%]	pest or weed control at 140 g/ha [5] [%]	pest or weed control at 35 g/ha [6] [%]	pest or weed control at 70 g/ha [6] [%]	pest or weed control at 140 g/ha [6] [%]	pest or weed control at 35 g/ha [7] [%]	further results
COC(=O)c1nc(-c2cc3nonc3cc2F)c(F)c(N)c1Cl [Compound 3, Methyl 4-amino-3-chloro-5-fluoro-6-(6-fluorobenzo[c][1,2,5]oxadiazol-5-yl)picolinate]	180 to 182	85 to 94	85 to 94	85 to 94	95 to 100	95 to 100	95 to 100	85 to 94	85 to 94	95 to 100	60 to 74	60 to 74	75 to 84	0 to 29	0 to 29	0 to 29	45 to 59	0 to 29	0 to 29	95 to 100	pest or weed control at 70 g/ha [7]: 95 to 100%; pest or weed control at 140 g/ha [7]: 75 to 84%; pest or weed control at 35 g/ha [8]: 85 to 94%; pest or weed control at 70 g/ha [8]: 85 to 94%; pest or weed control at 140 g/ha [8]: 95 to 100%; pest or weed control at 35 g/ha [9]: 45 to 59%; pest or weed control at 70 g/ha [9]: 45 to 59%; pest or weed control at 140 g/ha [9]: 45 to 59%; pest or weed control at 35 g/ha [10]: 45 to 59%; pest or weed control at 70 g/ha [10]: 45 to 59%; pest or weed control at 140 g/ha [10]: 60 to 74%; pest or weed control at 35 g/ha [11]: 60 to 74%; pest or weed control at 70 g/ha [11]: 95 to 100%; pest or weed control at 140 g/ha [11]: 95 to 100%; pest or weed control at 35 g/ha [12]: 45 to 59%; pest or weed control at 70 g/ha [12]: 45 to 59%; pest or weed control at 140 g/ha [12]: 60 to 74%
COC(=O)c1nc(-c2cc3nonc3cc2F)cc(N)c1Cl [Compound 4, Methyl 4-amino-3-chloro-6-(6-fluorobenzo[c][1,2,5]oxadiazol-5-yl)picolinate]	199 to 201	85 to 94	95 to 100	95 to 100	95 to 100	95 to 100	95 to 100	85 to 94	85 to 94	85 to 94	85 to 94	85 to 94	85 to 94	0 to 29	0 to 29	30 to 44	85 to 94	95 to 100	95 to 100	85 to 94	pest or weed control at 70 g/ha [7]: 95 to 100%; pest or weed control at 140 g/ha [7]: 85 to 94%; pest or weed control at 35 g/ha [8]: 85 to 94%; pest or weed control at 70 g/ha [8]: 95 to 100%; pest or weed control at 140 g/ha [8]: 95 to 100%; pest or weed control at 35 g/ha [9]: 60 to 74%; pest or weed control at 70 g/ha [9]: 60 to 74%; pest or weed control at 140 g/ha [9]: 60 to 74%; pest or weed control at 35 g/ha [10]: 95 to 100%; pest or weed control at 70 g/ha [10]: 95 to 100%; pest or weed control at 140 g/ha [10]: 95 to 100%; pest or weed control at 35 g/ha [11]: 95 to 100%; pest or weed control at 70 g/ha [11]: 95 to 100%; pest or weed control at 140 g/ha [11]: 95 to 100%; pest or weed control at 35 g/ha [12]: 60 to 74%; pest or weed control at 70 g/ha [12]: 75 to 84%; pest or weed control at 140 g/ha [12]: 75 to 84%
COC(=O)c1nc(-c2cc3nonc3cc2Cl)cc(N)c1Cl [Compound 8]	224 to 226	0 to 29	0 to 29	0 to 29	0 to 29	0 to 29	0 to 29	0 to 29	0 to 29	0 to 29	0 to 29	0 to 29	0 to 29	0 to 29	0 to 29	0 to 29	0 to 29	0 to 29	0 to 29	0 to 29	pest or weed control at 70 g/ha [7]: 0 to 29%; pest or weed control at 140 g/ha [7]: 0 to 29%; pest or weed control at 35 g/ha [8]: 0 to 29%; pest or weed control at 70 g/ha [8]: 0 to 29%; pest or weed control at 140 g/ha [8]: 30 to 44%; pest or weed control at 35 g/ha [9]: 0 to 29%; pest or weed control at 70 g/ha [9]: 0 to 29%; pest or weed control at 140 g/ha [9]: 0 to 29%; pest or weed control at 35 g/ha [10]: 0 to 29%; pest or weed control at 70 g/ha [10]: 0 to 29%; pest or weed control at 140 g/ha [10]: 0 to 29%; pest or weed control at 35 g/ha [11]: 0 to 29%; pest or weed control at 70 g/ha [11]: 0 to 29%; pest or weed control at 140 g/ha [11]: 0 to 29%; pest or weed control at 35 g/ha [12]: 0 to 29%; pest or weed control at 70 g/ha [12]: 0 to 29%; pest or weed control at 140 g/ha [12]: 0 to 29%
